Test results: BindingDB's records for patent US11160797 (NOVARTIS AG, 2021)

Target: T1, Activin receptor type-1 [172-499,R206H] (Homo sapiens, UniProt Q04771, R206H)
T1 construct: 172-499
Assay: In Vitro Enzyme Inhibition Using a Biochemical Peptide Phosphorylation Assay- Caliper Assay

T1 sequence (Q04771 172-499 R206H): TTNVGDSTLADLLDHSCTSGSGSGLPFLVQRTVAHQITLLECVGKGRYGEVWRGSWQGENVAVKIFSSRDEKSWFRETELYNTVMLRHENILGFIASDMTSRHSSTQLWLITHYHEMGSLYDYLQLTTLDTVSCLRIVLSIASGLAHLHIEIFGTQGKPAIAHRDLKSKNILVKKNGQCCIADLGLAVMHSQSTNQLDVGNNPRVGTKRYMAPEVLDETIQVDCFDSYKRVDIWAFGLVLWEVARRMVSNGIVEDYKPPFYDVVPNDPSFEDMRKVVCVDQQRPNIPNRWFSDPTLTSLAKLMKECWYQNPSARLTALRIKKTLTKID

IC50: 0.14 µM
Compound: CC(C)CN1c2ccc(-c3cncc(-c4ccc(=O)n(C(C)C)c4)c3)cc2CS1(=O)=O [US11160797, Example 50]
